The test system of the experiment is umbilical cord-derived CD133+ hematopoietic stem cells. In words: Differentiation and proliferation of ex-vivo cultured hematopoietic stem cells (FACS surface markers). The class given is cell-based. The procedure:
Umbilical cord-derived hematopoietic stem cells were isolated using CD133 microbeads and CliniMACS® separator (Miltenyi, Inc. Auburn, Calif.), and cultured for 3 weeks in MEMα supplemented with 50 ng/ml TPO, IL6, SCF, Flt3, fetal bovine serum, ±2.5 or 5 mM nicotinamide, and/or 10, 50 or 200 ng/ml FGF4. After 3 weeks in culture the cells were stained for surface markers (CD38, CD133, CD33, CD19) and the cell populations determined by FACS analysis (see below). Results are expressed as percentage of total population assayed.
At different time points the cells were detached with 0.25% trypsin-EDTA. The cells were washed with a PBS solution containing 1% BSA, and stained (at 4° C. for 30 min) with either fluorescein isothiocyanate (FITC) or phycoerythrin (PE)-conjugated antibodies: 105 PE, 105 FITC (Serotec, Raleigh, N.C.), 45 FITC, 14 FITC, HLA-DR FITC, 106 PE, 31 PE (BD, Franklin Lakes N.J.), 34 PE (Dako, Glostrup, Denmark), 73 PE, HLA class1 PE, 49b PE (Pharmingen, San Diego, Calif.), 29 PE, 44 PE, 54 FITC, 59 PE, 90 PE (BioLegend, San Diego, Calif.). CD133—(AC141) PE (Miltenyi, Auburn, Calif.), CD38 FITC (Dako, Glostrup, Denmark), CD19 FITC (BD Biosciences, Franklin Lakes N.J.), CD33 FITC (BD Bioscience, Franklin Lakes N.J.).
The cells were then washed in the above buffer and analyzed using a FACScalibur® flow cytometer (Becton Dickinson, Franklin Lakes N.J.). The cells were passed at a rate of up to 1000 cells/second, using a 488 nm argon laser beam as the light source for excitation. Emission of 10000 cells was measured using logarithmic amplification, and analyzed using the CellQuest software (Becton Dickinson). Cells stained with FITC- and PE-conjugated isotype control antibodies were used to determine background fluorescence.
Umbilical cord-derived CD133+ hematopoietic stem cells were isolated and cultured for 3 weeks in medium supplemented with early-acting growth factors and fetal bovine serum, nicotinamide and/or FGF4. After 3 weeks in culture the cells were stained for surface markers (CD38, CD133, CD19) and the cell populations determined by FACS analysis. Cell proliferation was assessed by counting total cells at three weeks.

In the case of `NC(=O)c1cccnc1` [nicotinamide, Nicotinamide], the “degree of differentiation of hematopoietic progenitor cells (CD38 and CD133-expressing fraction)” value (3 weeks culture, nicotinamide 2.5 or 5 mM, FGF4 10 to 200 ng/ml) was “decreases significantly”. Also, under “3 weeks, FIG. 35”, the “fraction of undifferentiated early progenitors (CD38-CD133+)” value is listed as “significantly greater fraction”. Also, the “differentiation (CD38+ cells)” value (3 weeks, FIG. 36) was “significant inhibition of differentiation”. Further, the “myeloid lineage differentiation (CD33+ cells)” value (3 weeks, FIG. 37) is “significant inhibition”. For the setting “3 weeks, FIG. 38”, the “lymphoid lineage differentiation (CD19+ cells)” value is listed as “striking inhibition”. In addition, the “abundance of committed myeloid or lymphoid cells (CD33, CD19)” value (three week cultures) was “consistently reduced the committed cell fraction”.
